Source: US20140179681A1, “METHODS AND COMPOSITIONS OF TARGETED DRUG DEVELOPMENT” (priority 2010, published 2014)
pIC50: −log10 of the molar value. Counter-ions that a name gives are not always drawn. Like-named read-outs stand apart in the source and are kept apart here.

Legend:
[1] = tested on: epithelial carcinoma A431 cell line; test: MTT Cell Proliferation Assay, A431 cells; type: cell-based; settings: for IC50: first of x/y(ratio): A431, unit not printed (doses in μM); for MTT Assay IC50(A431/MDBK): ratio in parentheses: ratio MDBK IC50 / A431 IC50 (selectivity)
Outline: (§1)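 Viability was measured by mitochondrial MTT reduction after cells were exposed to compound for 3 days in reduced-serum medium. Inhibition was calculated per plate against 0.5% DMSO controls.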

[2] = tested on: MDBK line; test: MTT Cell Proliferation Assay, MDBK cells; type: cell-based, bovine; settings: for IC50: second of x/y(ratio): MDBK, unit not printed (doses in μM)
Outline: as §1

[3] = target: T1, EGFR (Homo sapiens, UniProt P00533); test: EGFR in-cell Western (ICW) screening protocol (EGFR inhibition assay); type: cell-based; parameters: ICW 1 / ICW 2 / ICW Avg: unit not given here; settings: for ICW Avg / ICW 1 / ICW 2: ICW assay; for ICW Avg: average of runs 1 and 2; for ICW 1: run 1; for ICW 2: run 2; for ICW assay: Table 10; for ICW assay / ICW Screen: % Inhibition of EGF dependent EGFR phosphorylation in A431 cells, compound 125 μM in assay; for ICW Screen: Table 11
T1 construct: host or cells: A431
T1 sequence (P00533 25-1210): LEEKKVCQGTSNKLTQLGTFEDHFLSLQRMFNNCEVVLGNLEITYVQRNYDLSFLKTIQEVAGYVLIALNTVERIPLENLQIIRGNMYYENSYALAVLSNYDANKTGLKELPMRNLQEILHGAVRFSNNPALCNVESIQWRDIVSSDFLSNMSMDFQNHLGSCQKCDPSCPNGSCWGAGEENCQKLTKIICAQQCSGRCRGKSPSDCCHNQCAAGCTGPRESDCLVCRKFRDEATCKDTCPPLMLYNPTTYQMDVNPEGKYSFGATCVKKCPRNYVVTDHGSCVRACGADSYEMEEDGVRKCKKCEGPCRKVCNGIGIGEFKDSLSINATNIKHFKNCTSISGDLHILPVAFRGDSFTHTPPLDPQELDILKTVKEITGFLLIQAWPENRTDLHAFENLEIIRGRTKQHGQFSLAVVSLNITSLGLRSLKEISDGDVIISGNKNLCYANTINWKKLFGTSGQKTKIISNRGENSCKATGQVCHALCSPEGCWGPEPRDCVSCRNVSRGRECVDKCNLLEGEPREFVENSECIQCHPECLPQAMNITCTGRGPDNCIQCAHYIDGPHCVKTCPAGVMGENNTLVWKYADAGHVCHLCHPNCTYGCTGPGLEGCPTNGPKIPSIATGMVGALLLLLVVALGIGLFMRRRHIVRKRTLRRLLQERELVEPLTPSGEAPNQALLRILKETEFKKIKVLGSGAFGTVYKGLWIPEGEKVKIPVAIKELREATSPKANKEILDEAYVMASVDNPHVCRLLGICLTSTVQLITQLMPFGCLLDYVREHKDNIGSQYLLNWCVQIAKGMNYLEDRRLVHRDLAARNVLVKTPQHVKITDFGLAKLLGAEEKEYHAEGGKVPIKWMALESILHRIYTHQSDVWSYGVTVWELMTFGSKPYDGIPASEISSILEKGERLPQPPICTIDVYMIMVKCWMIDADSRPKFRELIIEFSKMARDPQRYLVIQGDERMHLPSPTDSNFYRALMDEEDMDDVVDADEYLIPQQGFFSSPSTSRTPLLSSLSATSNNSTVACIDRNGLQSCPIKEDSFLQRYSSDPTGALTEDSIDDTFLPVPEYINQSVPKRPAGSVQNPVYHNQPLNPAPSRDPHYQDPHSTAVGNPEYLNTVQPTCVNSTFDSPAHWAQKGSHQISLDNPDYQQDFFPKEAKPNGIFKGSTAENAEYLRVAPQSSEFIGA
Outline: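 Serum-starved A431 cells (2 h) were pretreated with compound for 4 h at 37° C, then stimulated with EGF (10 ng/ml final, or 6.6 or 12.5 ng/ml in some runs) for 10 min. After formaldehyde fixation, phospho-EGFR (Tyr1173, or Tyr1045 in some runs) and total EGFR were detected by in-cell Western immunostaining.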

[4] = Homo sapiens, A-431, A431 cells, first value of cell, read-out: MTT Assay IC50(A431/MDBK): A431
[5] = Bos taurus, MDBK, MDBK cells, second value of cell, read-out: MTT Assay IC50(A431/MDBK): MDBK
[6] = Homo sapiens, A-431, 72 h, Table 10, three day treatment, read-out: MTT assay (first value)
[7] = Bos taurus, MDBK, 72 h, Table 10, three day treatment, read-out: MTT assay (second value)
[8] = Homo sapiens, A-431, first value of 'a/b (c)', taken as A431 cells, read-out: MTT Screen, first value of cell
[9] = Bos taurus, MDBK, second value of 'a/b (c)', taken as MDBK cells, read-out: MTT Screen, second value of cell
[10] = Homo sapiens, A-431, 72 h, Table 11, read-out: MTT Screen (first value)
[11] = Bos taurus, MDBK, Table 11, read-out: MTT Screen (second value)

Cc1nc(Nc2nc(CSc3nc4ccccc4[nH]3)cc(=O)[nH]2)nc2ccccc12 [compound 11582]
pIC50 [1, 4]: 5.61
pIC50 ([1]; Homo sapiens, A-431, follow-up MTT, A431 cells, first value, read-out: MTT Follow-up: A431): 4.31
MTT Follow-up: ratio in parentheses ([1]; follow-up MTT, ratio MDBK/A431): 1.13
pIC50 [2, 5]: 5.61
pIC50 ([2]; Bos taurus, MDBK, follow-up MTT, MDBK cells, second value, read-out: MTT Follow-up: MDBK): 4.25
ICW Avg [3]: 49.89
ICW 1 [3]: 59.77
ICW 2 [3]: 40.01

Cc1ccc(NS(=O)(=O)c2ccc(NC(=S)NC(=O)C3CCC3)cc2)cc1C [AD4-12175]
pIC50 ([1]; first value of 'a/b (c)', taken as A431 cells, read-out: MTT Screen, first value of cell): 4.40
pIC50 ([2]; second value of 'a/b (c)', taken as MDBK cells, read-out: MTT Screen, second value of cell): 5.02
ICW Screen (ICW Inhibition) [3]: 42.36

O=S(=O)(Nc1ccc(Cl)cc1)c1ccc(NC(=S)Nc2cccc(C(F)(F)F)c2)cc1 [AD4-12423]
IC50 [1, 6]: 6.35 µM
IC50 ([1]; Table 10, three day treatment, read-out: MTT assay (first value)): 4.23 µM
IC50 [2, 7]: 5.77 µM
IC50 ([2]; Table 10, three day treatment, read-out: MTT assay (second value)): 2.92 µM
ICW assay [3]: 129.155

Cc1cc(C)nc(NS(=O)(=O)c2ccc(NC(=S)NC(=O)COc3ccc(Br)cc3Cl)cc2)n1 [AD4-12158]
pIC50 [1, 8]: 5.30
pIC50 [2, 9]: 5.34
ICW Screen (ICW Inhibition) [3]: 36.727

CCCCCc1c(C)nc(Nc2nc(C)c3cc(CC)ccc3n2)[nH]c1=O [12226 + TFA]
pIC50 [1, 4]: 4.37
MTT Assay IC50(A431/MDBK): ratio in parentheses [1]: 1.15
pIC50 [2, 5]: 4.31
ICW Avg [3]: 38.74
ICW 1 [3]: 42.24
ICW 2 [3]: 35.23

O=S(=O)(Nc1ccccc1)c1ccc(NC(=S)Nc2cc(Cl)ccc2Cl)cc1 [AD4-12855]
IC50 [1, 6]: 6.83 µM
IC50 [2, 7]: 6.25 µM
ICW assay [3]: 25.0542

COc1ccc(C)cc1NC(=S)Nc1ccc(S(=O)(=O)Nc2ccc(Cl)cc2)cc1 [AD4-12485]
IC50 [1, 6]: 6.98 µM
IC50 [2, 7]: 7.19 µM
ICW assay [3]: 33.3993

Cc1ccc2c(CN3CCN(Cc4ccc5c(c4)OCO5)CC3)cc(=O)oc2c1C [AD4-10181]
IC50 [1, 10]: 2.61 µM
IC50 [2, 11]: 16 µM
ICW Screen [3]: 34.604

COc1cccc(NC(=S)Nc2ccc(S(=O)(=O)Nc3ccc(Cl)cc3)cc2)c1 [AD4-12411]
IC50 [1, 6]: 6.7 µM
IC50 [2, 7]: 5.18 µM
ICW assay [3]: 34.0556

CN1CCN(S(=O)(=O)c2ccc(NC(=S)NC(=O)/C=C/c3ccccc3)cc2)CC1 [AD4-12145]
pIC50 [1, 8]: 4.39
pIC50 [2, 9]: 4.38
ICW Screen (ICW Inhibition) [3]: 30.469

Cc1ccccc1C(=O)NC(=S)Nc1ccc(S(=O)(=O)Nc2ccccc2)cc1 [AD4-10706]
pIC50 [1, 8]: 4.82
pIC50 [2, 9]: 4.64
ICW Screen (ICW Inhibition) [3]: 55.497

CCCc1c[nH]c(Nc2nc(-c3ccccc3)c3cc(Cl)ccc3n2)nc1=O [12660 + TFA]
pIC50 [1, 4]: 4.38
MTT Assay IC50(A431/MDBK): ratio in parentheses [1]: 0.99
pIC50 [2, 5]: 4.39
ICW Avg [3]: 61.63
ICW 1 [3]: 49.87
ICW 2 [3]: 73.40

Cc1ccc2c(O)nc(Nc3nc(C)cc(-c4ccccc4)n3)nc2c1 [12693 + TFA]
pIC50 [1, 4]: 5.05
MTT Assay IC50(A431/MDBK): ratio in parentheses [1]: 0.76
pIC50 [2, 5]: 5.16
ICW Avg [3]: 57.18
ICW 1 [3]: 40.36
ICW 2 [3]: 74.00

Cc1ccc2nc(Nc3nc(CSc4nc5ccccc5s4)cc(=O)[nH]3)nc(C)c2c1 [compound 11592]
pIC50 [1, 4]: 4.66
MTT Assay IC50(A431/MDBK): ratio in parentheses [1]: 0.84
pIC50 [2, 5]: 4.74
ICW Avg [3]: 29.16
ICW 1 [3]: 24.41
ICW 2 [3]: 33.91

O=c1cc(CN2CCN(Cc3ccc4c(c3)OCO4)CC2)c2cc3c(cc2o1)CCC3 [AD4-10179]
IC50 [1, 10]: 13.2 µM
IC50 [2, 11]: 13.9 µM
ICW Screen [3]: 34.742

CC1CCc2cc(F)ccc2N1S(=O)(=O)c1ccc(NC(=S)Nc2ccc(Br)cc2Cl)cc1 (stereo not shown) [AD4-12832]
IC50 [1, 6]: 7.71 µM
IC50 [2, 7]: 16.3 µM
ICW assay [3]: 29.02

COc1ccc(NC(=S)Nc2ccc(S(=O)(=O)Nc3cc(Cl)cc(Cl)c3)cc2)cc1OC [AD4-12481]
IC50 [1, 6]: 10.4 µM
IC50 [2, 7]: 11 µM
ICW assay [3]: 42.006

Cc1nc(Nc2nc(CSc3ccccn3)cc(=O)[nH]2)nc2ccccc12 [12740 + TFA]
pIC50 ([1]; A431 cells, first value of cell, read-out: MTT Assay IC50(A431/MDBK): A431): 4.31
MTT Assay IC50(A431/MDBK): ratio in parentheses [1]: 0.48
pIC50 ([2]; MDBK cells, second value of cell, read-out: MTT Assay IC50(A431/MDBK): MDBK): 4.63
ICW Avg [3]: 28.34
ICW 1 [3]: 28.77
ICW 2 [3]: 27.91

COc1ccc(CC(=O)NC(=S)Nc2ccc(S(=O)(=O)NCCc3ccccc3)cc2)cc1 [AD4-11415]
pIC50 [1, 8]: 4.80
pIC50 [2, 9]: 4.98
ICW Screen (ICW Inhibition) [3]: 35.841

Cc1nc(Nc2nc(C(C)C)cc(=O)[nH]2)nc2c(C)cccc12 [compound 12777]
pIC50 [1, 4]: 4.89
MTT Assay IC50(A431/MDBK): ratio in parentheses [1]: 0.70
pIC50 [2, 5]: 5.05
ICW Avg [3]: 30.77
ICW 1 [3]: 24.37
ICW 2 [3]: 37.17

COc1ccc(NC(=S)Nc2ccc(S(=O)(=O)Nc3ccccc3C)cc2)c(OC)c1 [AD4-12517]
IC50 [1, 6]: 30.4 µM
IC50 [2, 7]: 20 µM
ICW assay [3]: 31.5308

COc1ccc(NS(=O)(=O)c2ccc(NC(=S)Nc3ccc(OC)c(OC)c3)cc2)cc1 [AD4-12433]
IC50 [1, 6]: 29.1 µM
IC50 [2, 7]: 38.5 µM
ICW assay [3]: 54.4095

CCOc1ccc(NC(=S)Nc2ccc(S(=O)(=O)Nc3cc(Cl)cc(Cl)c3)cc2)cc1 [AD4-12529]
IC50 [1, 6]: 6.35 µM
IC50 [2, 7]: 6.47 µM
ICW assay [3]: 63.9249

CC1CCN(S(=O)(=O)c2ccc(NC(=S)NC(=O)CCC(=O)OCCc3ccccc3)cc2)CC1 [AD4-12153]
pIC50 [1, 8]: 4.81
pIC50 [2, 9]: 4.66
ICW Screen (ICW Inhibition) [3]: 31.36

COc1ccccc1NC(=S)Nc1ccc(S(=O)(=O)Nc2ccc(Cl)cc2)cc1 [AD4-12502]
IC50 [1, 6]: 6.97 µM
IC50 [2, 7]: 5.46 µM
ICW assay [3]: 25.1182

CC(C)(C)C(=O)NC(=S)Nc1ccc(S(=O)(=O)NCCc2ccccc2)cc1 [AD4-10613]
pIC50 [1, 8]: 4.86
pIC50 [2, 9]: 4.93
ICW Screen (ICW Inhibition) [3]: 35.514

Cc1ccc(NS(=O)(=O)c2ccc(NC(=S)NC(=O)COc3ccc(Cl)cc3C)cc2)c(C)c1 [AD4-12152]
pIC50 [1, 8]: 4.68
pIC50 [2, 9]: 4.79
ICW Screen (ICW Inhibition) [3]: 50.528

Cc1c(O)ccc2c(CN3CCN(Cc4ccc5c(c4)OCO5)CC3)cc(=O)oc12 [AD4-10637]
IC50 ([1]; Homo sapiens, A-431, Table 11, read-out: MTT Screen (first value)): 20.8 µM
IC50 [2, 11]: 41.3 µM
ICW Screen [3]: 30.057
